According to patent US20180289678A1, “PHARMACEUTICAL COMPOSITION, PHARMACEUTICAL DOSAGE FORM, PROCESS FOR THEIR PREPARATION, METHODS FOR TREATING AND USES THEREOF” (Boehringer Ingelheim International GmbH, priority 2009, published 2018):
Where two headings read alike, the source gives them in different places.

Assay: Study .1: single dose study in healthy volunteers, pharmacokinetic parameters
Type: in vivo, human
Conditions: Study .1, fasted
Method: 5. Pharmacokinetic Parameters
The pharmacokinetic parameters of pharmaceutical compositions and pharmaceutical dosage forms are assessed in healthy volunteer and patient populations. In the studies shown below, the participants fasted on the day of sampling, unless as otherwise stated (see for example study .3). The active substance in the studies below is the compound (I.9), preferably in the crystalline form (I.9X), and the dose of active ingredient is indicated in mg.
For the quantification of plasma concentrations of the active ingredient, 2.7 mL of blood was collected and transferred into an EDTA (ethylendiaminetetraacetic acid)-anticoagulant blood drawing tube. The EDTA-anticoagulated blood samples were centrifuged immediately after collection. Centrifugation lasted for about 10 minutes (at about 2,000×gf to 4,000×gf) at 4-8° C. or within 30 minutes while stored on ice. Concentrations of active substance in EDTA human plasma samples were quantitated using a HPLC/MS/MS method. The assay method comprised a solid phase supported liquid-liquid extraction of human plasma coupled with HPLC/MS/MS determination of the extracted samples. The HPLC/MS/MS assay was validated for the range of 1.11 to 1110 nM in human plasma.
Study .1: Single dose study in a healthy volunteer population of N=72. Healthy volunteers were administered tablets as described in Example 10 (section Examples of formulations).
AUC0-inf:area under the concentration-time curve of the analyte in plasma over the time interval from 0 extrapolated to infinity.
Cmax: maximum concentration of the analyte in plasma.
Tmax: time from dosing to maximum concentration.

OC[C@H]1O[C@@H](c2ccc(Cl)c(Cc3ccc(O[C@H]4CCOC4)cc3)c2)[C@H](O)[C@@H](O)[C@@H]1O [Compound (I.9), 1-chloro-4-(β-D-glucopyranos-1-yl)-2-[4-((S)-tetrahydrofuran-3-yloxy)-benzyl]-benzene]
AUC0-inf Max (2.5 mg single dose): 0.448 µM·h
AUC0-inf Min (2.5 mg single dose): 0.336 µM·h
AUC0-inf,norm Max (2.5 mg single dose): 179 nmol·h/L/mg
AUC0-inf,norm Median (2.5 mg single dose): 159 nmol·h/L/mg
AUC0-inf,norm Min (2.5 mg single dose): 134 nmol·h/L/mg
AUC0-inf,norm gMean (2.5 mg single dose): 158 nmol·h/L/mg
Cmax,norm Max (2.5 mg single dose): 24 nmol/L/mg
Cmax,norm Median (2.5 mg single dose): 22 nmol/L/mg
Cmax,norm Min (2.5 mg single dose): 17 nmol/L/mg
Cmax,norm gMean (2.5 mg single dose): 21 nmol/L/mg
tmax Max (2.5 mg single dose): 2.98 h
tmax Min (2.5 mg single dose): 0.983 h
Cmax (2.5 mg single dose, read-out: Cmax Max): 60.8 nM
Cmax (2.5 mg single dose, read-out: Cmax Min): 42.8 nM
AUC0-inf Max (10 mg single dose): 2.18 µM·h
AUC0-inf Min (10 mg single dose): 1.17 µM·h
AUC0-inf,norm Max (10 mg single dose): 218 nmol·h/L/mg
AUC0-inf,norm Median (10 mg single dose): 178 nmol·h/L/mg
AUC0-inf,norm Min (10 mg single dose): 117 nmol·h/L/mg
AUC0-inf,norm gMean (10 mg single dose): 169 nmol·h/L/mg
Cmax,norm Max (10 mg single dose): 27 nmol/L/mg
Cmax,norm Median (10 mg single dose): 24 nmol/L/mg
Cmax,norm Min (10 mg single dose): 14 nmol/L/mg
Cmax,norm gMean (10 mg single dose): 22 nmol/L/mg
tmax Max (10 mg single dose): 2.03 h
tmax Min (10 mg single dose): 0.983 h
Cmax (10 mg single dose, read-out: Cmax Max): 268 nM
Cmax (10 mg single dose, read-out: Cmax Min): 143 nM
AUC0-inf Max (25 mg single dose): 4.91 µM·h
AUC0-inf Min (25 mg single dose): 2.66 µM·h
AUC0-inf,norm Max (25 mg single dose): 196 nmol·h/L/mg
AUC0-inf,norm Median (25 mg single dose): 159 nmol·h/L/mg
AUC0-inf,norm Min (25 mg single dose): 106 nmol·h/L/mg
AUC0-inf,norm gMean (25 mg single dose): 150 nmol·h/L/mg
Cmax,norm Max (25 mg single dose): 27 nmol/L/mg
Cmax,norm Median (25 mg single dose): 21 nmol/L/mg
Cmax,norm Min (25 mg single dose): 13 nmol/L/mg
Cmax,norm gMean (25 mg single dose): 20 nmol/L/mg
tmax Max (25 mg single dose): 3.02 h
tmax Min (25 mg single dose): 1.00 h
Cmax (25 mg single dose, read-out: Cmax Max): 678 nM
Cmax (25 mg single dose, read-out: Cmax Min): 334 nM
AUC0-inf Max (50 mg single dose): 11.5 µM·h
AUC0-inf Min (50 mg single dose): 7.27 µM·h
AUC0-inf,norm Max (50 mg single dose): 230 nmol·h/L/mg
AUC0-inf,norm Median (50 mg single dose): 166 nmol·h/L/mg
AUC0-inf,norm Min (50 mg single dose): 145 nmol·h/L/mg
AUC0-inf,norm gMean (50 mg single dose): 169 nmol·h/L/mg
Cmax,norm Max (50 mg single dose): 29 nmol/L/mg
Cmax,norm Median (50 mg single dose): 22 nmol/L/mg
Cmax,norm Min (50 mg single dose): 14 nmol/L/mg
Cmax,norm gMean (50 mg single dose): 22 nmol/L/mg
tmax Max (50 mg single dose): 3.00 h
tmax Min (50 mg single dose): 0.750 h
Cmax (50 mg single dose, read-out: Cmax Max): 1450 nM
AUC(0-inf) (human, plasma, oral, 2.5 mg, 2.5 mg single dose, read-out: AUC0-inf Mean): 0.396 µM·h
AUC(0-inf) (human, plasma, oral, 2.5 mg, 2.5 mg single dose, read-out: AUC0-inf Median): 0.398 µM·h
AUC(0-inf) (human, plasma, oral, 2.5 mg, 2.5 mg single dose, read-out: AUC0-inf gMean): 0.394 µM·h
Cmax (human, plasma, oral, 2.5 mg, 2.5 mg single dose, read-out: Cmax Mean): 53.2 nM
Cmax (human, plasma, oral, 2.5 mg, 2.5 mg single dose, read-out: Cmax Median): 55 nM
Cmax (human, plasma, oral, 2.5 mg, 2.5 mg single dose, read-out: Cmax gMean): 52.9 nM
Tmax (human, plasma, oral, 2.5 mg, 2.5 mg single dose, read-out: tmax Mean): 1.83 h
Tmax (human, plasma, oral, 2.5 mg, 2.5 mg single dose, read-out: tmax Median): 1.75 h
Tmax (human, plasma, oral, 2.5 mg, 2.5 mg single dose, read-out: tmax gMean): 1.72 h
AUC(0-inf) (human, plasma, oral, 10 mg, 10 mg single dose, read-out: AUC0-inf Mean): 1.73 µM·h
AUC(0-inf) (human, plasma, oral, 10 mg, 10 mg single dose, read-out: AUC0-inf Median): 1.78 µM·h
AUC(0-inf) (human, plasma, oral, 10 mg, 10 mg single dose, read-out: AUC0-inf gMean): 1.69 µM·h
Cmax (human, plasma, oral, 10 mg, 10 mg single dose, read-out: Cmax Mean): 226 nM
Cmax (human, plasma, oral, 10 mg, 10 mg single dose, read-out: Cmax Median): 239 nM
Cmax (human, plasma, oral, 10 mg, 10 mg single dose, read-out: Cmax gMean): 221 nM
Tmax (human, plasma, oral, 10 mg, 10 mg single dose, read-out: tmax Mean): 1.42 h
Tmax (human, plasma, oral, 10 mg, 10 mg single dose, read-out: tmax Median): 1.5 h
Tmax (human, plasma, oral, 10 mg, 10 mg single dose, read-out: tmax gMean): 1.38 h
AUC(0-inf) (human, plasma, oral, 25 mg, 25 mg single dose, read-out: AUC0-inf Mean): 3.83 µM·h
AUC(0-inf) (human, plasma, oral, 25 mg, 25 mg single dose, read-out: AUC0-inf Median): 3.98 µM·h
AUC(0-inf) (human, plasma, oral, 25 mg, 25 mg single dose, read-out: AUC0-inf gMean): 3.75 µM·h
Cmax (human, plasma, oral, 25 mg, 25 mg single dose, read-out: Cmax Mean): 505 nM
Cmax (human, plasma, oral, 25 mg, 25 mg single dose, read-out: Cmax Median): 520 nM
Cmax (human, plasma, oral, 25 mg, 25 mg single dose, read-out: Cmax gMean): 490 nM
Tmax (human, plasma, oral, 25 mg, 25 mg single dose, read-out: tmax Mean): 2.19 h
Tmax (human, plasma, oral, 25 mg, 25 mg single dose, read-out: tmax Median): 2.05 h
Tmax (human, plasma, oral, 25 mg, 25 mg single dose, read-out: tmax gMean): 2.06 h
AUC(0-inf) (human, plasma, oral, 50 mg, 50 mg single dose, read-out: AUC0-inf Mean): 8.58 µM·h
AUC(0-inf) (human, plasma, oral, 50 mg, 50 mg single dose, read-out: AUC0-inf Median): 8.29 µM·h
AUC(0-inf) (human, plasma, oral, 50 mg, 50 mg single dose, read-out: AUC0-inf gMean): 8.46 µM·h
Cmax (human, plasma, oral, 50 mg, 50 mg single dose, read-out: Cmax Mean): 1110 nM
Cmax (human, plasma, oral, 50 mg, 50 mg single dose, read-out: Cmax Median): 1100 nM
Cmax (human, plasma, oral, 50 mg, 50 mg single dose, read-out: Cmax gMean): 1080 nM
Tmax (human, plasma, oral, 50 mg, 50 mg single dose, read-out: tmax Mean): 1.75 h
Tmax (human, plasma, oral, 50 mg, 50 mg single dose, read-out: tmax Median): 1.5 h
Tmax (human, plasma, oral, 50 mg, 50 mg single dose, read-out: tmax gMean): 1.59 h
